Experimental data: patent US20080274892A1, “Novel Haloalkylsulfonanilide Derivative, Herbicide, and Method of Use Thereof” (priority 2005, published 2008)

Columns and labels:
bulrush [1] = experiment: Test Example 4: low dosage test for rice paddy weeds; type: in vivo, Scirpus juncoides; conditions: 300 g/ha as an active ingredient; plants treated at the one leaf stage; 21 days after treatment; vs untreated control
Method in brief: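 Bulrush sown in clay loam pots, flooded to 5 cm water in a hot house, treated at the one-leaf stage with formulated compound at 300 g/ha. Efficacy scored 0–4 against untreated control 21 days after treatment (4 = 90–100%, 0 = 0% inhibition).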

[2] = test system: transplanted paddy rice plant and Bulrush; experiment: Test Example 5: selectivity between transplanted paddy rice plant and weeds; type: in vivo; conditions: (highest dosage with no phytotoxicity to paddy rice)/(lowest dosage with effective level 4 on Bulrush); rice 3000-100 g/ha, Bulrush 300-10 g/ha; 21 days
Method in brief: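 Transplanted paddy rice was treated at 3000, 1000, 300 and 100 g/ha active ingredient for phytotoxicity, and post-emergence bulrush at 300, 100, 30 and 10 g/ha. Plants were kept in a hothouse for 21 days. Growth inhibition versus untreated control was scored 0–4 (0%, 1–39%, 40–69%, 70–89%, 90–100%).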

false pimpernel [3] = experiment: Test Example 2: herbicidal efficacy on rice paddy weeds post-emergence; type: in vivo, Lindernia pyxidaria; conditions: post-emergence, one leaf stage, 21 days after treatment
[4] = test system: paddy rice plant (cultivar: Nihonbare); experiment: Test Example 3: phytotoxicity test for transplanted paddy rice plant; type: in vivo; conditions: transplanted rice, 21 days after treatment
Method in brief: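 Clay loam soil was placed in a 75 cm^2 plastic pot and flooded to a water depth of 5 cm. Two Nihonbare paddy rice plants at the two-leaf stage were transplanted 1 cm deep and grown in a hot house. After treatment, pots stayed in the hot house for 21 days, and phytotoxicity was then graded against an untreated control.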

barnyard glass = experiment: Test Example 2: herbicidal efficacy on rice paddy weeds post-emergence; type: in vivo, Echinochloa crus-galli; conditions: post-emergence, one leaf stage, 21 days after treatment
Method in brief: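 Plastic pots of 75 cm^2 were filled with clay loam soil and sown with barnyard glass and bulrush seeds, then topped with 75 cm^3 soil containing false pimpernel seeds. The pots were flooded to 5 cm water depth and held in a hot house. Twenty-one days after treatment, herbicidal efficacy was graded against an untreated control.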

false pimpernel [5] = experiment: Test Example 1: herbicidal efficacy on rice paddy weeds pre-emergence; type: in vivo, Lindernia pyxidaria; conditions: 21 days
bulrush [6] = experiment: Test Example 2: herbicidal efficacy on rice paddy weeds post-emergence; type: in vivo, Scirpus juncoides; conditions: post-emergence, one leaf stage, 21 days after treatment
bulrush [7] = experiment: Test Example 1: herbicidal efficacy on rice paddy weeds pre-emergence; type: in vivo, Scirpus juncoides; conditions: 21 days
[8] = dosage 1000 g/ha, treated 5 days after transplantation

| Compound | Herbicide effect to Bulrush (bulrush [1]) | Selective Index [2] | False pimpernel post (herbicidal efficacy grade) (false pimpernel [3]; dosage 1000 g/ha) | Phytotoxicity to paddy rice [4, 8] | Burnyard grass post (herbicidal efficacy grade) (barnyard glass; dosage 1000 g/ha) | False pimpernel pre (herbicidal efficacy grade) (false pimpernel [5]; dosage 1000 g/ha) | Bulrush post (herbicidal efficacy grade) (bulrush [6]; dosage 1000 g/ha) | Bulrush pre (herbicidal efficacy grade) (bulrush [7]; dosage 1000 g/ha) | False pimpernel post (herbicidal efficacy grade) (false pimpernel [3]; dosage 300 g/ha) | Phytotoxicity to paddy rice ([4]; dosage 300 g/ha) | Burnyard grass post (herbicidal efficacy grade) (barnyard glass; dosage 300 g/ha) | False pimpernel pre (herbicidal efficacy grade) (false pimpernel [5]; dosage 300 g/ha) | Bulrush post (herbicidal efficacy grade) (bulrush [6]; dosage 300 g/ha) | Bulrush pre (herbicidal efficacy grade) (bulrush [7]; dosage 300 g/ha) |
| --- | --- | --- | --- | --- | --- | --- | --- | --- | --- | --- | --- | --- | --- | --- |
| CCCC1(C)CN(Cc2ccccc2N(C(=O)OCC)S(=O)(=O)C(F)(F)F)C(=O)O1 (racemic) [1-127] | 4 (90%-100% of herbicidal efficacy or phytotoxicity) | 30 | 4 (90%-100% of herbicidal efficacy or phytotoxicity) | 1 (1%-39% of herbicidal efficacy or phytotoxicity) | 4 (90%-100% of herbicidal efficacy or phytotoxicity) | 4 (90%-100% of herbicidal efficacy or phytotoxicity) | 4 (90%-100% of herbicidal efficacy or phytotoxicity) | 4 (90%-100% of herbicidal efficacy or phytotoxicity) |  |  |  |  |  |  |
| CC[C@@H]1CN(Cc2ccccc2NS(=O)(=O)C(F)(F)F)C(=O)O1 [1-57] | 4 (90%-100% of herbicidal efficacy or phytotoxicity) | 10 | 4 (90%-100% of herbicidal efficacy or phytotoxicity) | 1 (1%-39% of herbicidal efficacy or phytotoxicity) | 4 (90%-100% of herbicidal efficacy or phytotoxicity) | 4 (90%-100% of herbicidal efficacy or phytotoxicity) | 4 (90%-100% of herbicidal efficacy or phytotoxicity) | 4 (90%-100% of herbicidal efficacy or phytotoxicity) |  |  |  |  |  |  |
| CCC1(CC)CN(Cc2ccccc2N(C(=O)OCC(C)(C)C)S(=O)(=O)C(F)(F)F)C(=O)O1 [1-100] | 4 (90%-100% of herbicidal efficacy or phytotoxicity) | 10 | 4 (90%-100% of herbicidal efficacy or phytotoxicity) | 1 (1%-39% of herbicidal efficacy or phytotoxicity) | 4 (90%-100% of herbicidal efficacy or phytotoxicity) | 4 (90%-100% of herbicidal efficacy or phytotoxicity) | 4 (90%-100% of herbicidal efficacy or phytotoxicity) | 4 (90%-100% of herbicidal efficacy or phytotoxicity) |  |  |  |  |  |  |
| CCC1CN(Cc2ccccc2NS(=O)(=O)C(F)(F)F)C(=O)O1 (stereo not shown) [Compound No. 1-23, 5-ethyl-3-[2-(trifluoromethanesulfonylamino)benzyl]-2-oxazolidinone] | 4 (90%-100% of herbicidal efficacy or phytotoxicity) | 10 | 4 (90%-100% of herbicidal efficacy or phytotoxicity) | 1 (1%-39% of herbicidal efficacy or phytotoxicity) | 4 (90%-100% of herbicidal efficacy or phytotoxicity) | 4 (90%-100% of herbicidal efficacy or phytotoxicity) | 4 (90%-100% of herbicidal efficacy or phytotoxicity) | 4 (90%-100% of herbicidal efficacy or phytotoxicity) |  |  |  |  |  |  |
| COCC1(C)CN(Cc2ccccc2N(C(=O)OCC(C)(C)C)S(=O)(=O)C(F)(F)F)C(=O)O1 (stereo not shown) [1-146] | 4 (90%-100% of herbicidal efficacy or phytotoxicity) | 10 | 4 (90%-100% of herbicidal efficacy or phytotoxicity) | 1 (1%-39% of herbicidal efficacy or phytotoxicity) | 4 (90%-100% of herbicidal efficacy or phytotoxicity) | 4 (90%-100% of herbicidal efficacy or phytotoxicity) | 4 (90%-100% of herbicidal efficacy or phytotoxicity) | 4 (90%-100% of herbicidal efficacy or phytotoxicity) |  |  |  |  |  |  |
| CC(C)(C)COC(=O)N(c1ccccc1CN1CC(C)(C)OC1=O)S(=O)(=O)C(F)(F)F [1-66] | 4 (90%-100% of herbicidal efficacy or phytotoxicity) | ≧30 | 4 (90%-100% of herbicidal efficacy or phytotoxicity) | 1 (1%-39% of herbicidal efficacy or phytotoxicity) | 4 (90%-100% of herbicidal efficacy or phytotoxicity) | 4 (90%-100% of herbicidal efficacy or phytotoxicity) | 4 (90%-100% of herbicidal efficacy or phytotoxicity) | 4 (90%-100% of herbicidal efficacy or phytotoxicity) |  |  |  |  |  |  |
| CCCC1(C)CN(Cc2ccccc2N(C(=O)OCC(C)C)S(=O)(=O)C(F)(F)F)C(=O)O1 (racemic) [1-122] | 4 (90%-100% of herbicidal efficacy or phytotoxicity) | 10 | 4 (90%-100% of herbicidal efficacy or phytotoxicity) | 1 (1%-39% of herbicidal efficacy or phytotoxicity) | 4 (90%-100% of herbicidal efficacy or phytotoxicity) | 4 (90%-100% of herbicidal efficacy or phytotoxicity) | 4 (90%-100% of herbicidal efficacy or phytotoxicity) | 4 (90%-100% of herbicidal efficacy or phytotoxicity) |  |  |  |  |  |  |
| CC(C)COC(=O)N(c1ccccc1CN1CCOC1=O)S(=O)(=O)C(F)(F)F [Compound No. 1-2] | 3 (70%-89% of herbicidal efficacy or phytotoxicity) | 3 | 4 (90%-100% of herbicidal efficacy or phytotoxicity) | 1 (1%-39% of herbicidal efficacy or phytotoxicity) | 4 (90%-100% of herbicidal efficacy or phytotoxicity) | 4 (90%-100% of herbicidal efficacy or phytotoxicity) | 4 (90%-100% of herbicidal efficacy or phytotoxicity) | 4 (90%-100% of herbicidal efficacy or phytotoxicity) |  |  |  |  |  |  |
| CC(C)COC(=O)N(c1ccccc1CN1CC2(CCCCC2)OC1=O)S(=O)(=O)C(F)(F)F [1-46] | 4 (90%-100% of herbicidal efficacy or phytotoxicity) | 10 | 4 (90%-100% of herbicidal efficacy or phytotoxicity) | 1 (1%-39% of herbicidal efficacy or phytotoxicity) | 4 (90%-100% of herbicidal efficacy or phytotoxicity) | 4 (90%-100% of herbicidal efficacy or phytotoxicity) | 4 (90%-100% of herbicidal efficacy or phytotoxicity) | 4 (90%-100% of herbicidal efficacy or phytotoxicity) |  |  |  |  |  |  |
| CC1COC(=O)N1Cc1ccccc1NS(=O)(=O)C(F)(F)F (stereo not shown) [1-3] | 4 (90%-100% of herbicidal efficacy or phytotoxicity) | 3.3 | 4 (90%-100% of herbicidal efficacy or phytotoxicity) | 4 (90%-100% of herbicidal efficacy or phytotoxicity) | 4 (90%-100% of herbicidal efficacy or phytotoxicity) | 4 (90%-100% of herbicidal efficacy or phytotoxicity) | 4 (90%-100% of herbicidal efficacy or phytotoxicity) | 4 (90%-100% of herbicidal efficacy or phytotoxicity) |  |  |  |  |  |  |
| COC1N(Cc2ccccc2N(C(=O)OCC(C)C)S(=O)(=O)C(F)(F)F)C(=O)OC1(C)C (stereo not shown) [Compound No. 1-197, 3-{2-[N-(isobutoxycarbonyl)-N-(trifluoromethanesulfonyl)-amino]benzyl}-4-methoxy-5,5-dimethyloxazolidin-2-one] | 4 (90%-100% of herbicidal efficacy or phytotoxicity) | 10 |  |  |  |  |  |  | 1 (1%-39% of herbicidal efficacy or phytotoxicity) | 2 (40%-69% of herbicidal efficacy or phytotoxicity) | 4 (90%-100% of herbicidal efficacy or phytotoxicity) | 3 (70%-89% of herbicidal efficacy or phytotoxicity) | 4 (90%-100% of herbicidal efficacy or phytotoxicity) | 4 (90%-100% of herbicidal efficacy or phytotoxicity) |
